{"source": "patent US7745492B2", "about": "“Carboxamido opioid compounds” (Janssen Pharmaceutical, priority 2004, dated 2010)", "key": {"[1]": {"molecular_target": "recombinant human P450 2C9 (Homo sapiens, UniProt P11712)", "sequence (P11712 whole entry, canonical isoform)": "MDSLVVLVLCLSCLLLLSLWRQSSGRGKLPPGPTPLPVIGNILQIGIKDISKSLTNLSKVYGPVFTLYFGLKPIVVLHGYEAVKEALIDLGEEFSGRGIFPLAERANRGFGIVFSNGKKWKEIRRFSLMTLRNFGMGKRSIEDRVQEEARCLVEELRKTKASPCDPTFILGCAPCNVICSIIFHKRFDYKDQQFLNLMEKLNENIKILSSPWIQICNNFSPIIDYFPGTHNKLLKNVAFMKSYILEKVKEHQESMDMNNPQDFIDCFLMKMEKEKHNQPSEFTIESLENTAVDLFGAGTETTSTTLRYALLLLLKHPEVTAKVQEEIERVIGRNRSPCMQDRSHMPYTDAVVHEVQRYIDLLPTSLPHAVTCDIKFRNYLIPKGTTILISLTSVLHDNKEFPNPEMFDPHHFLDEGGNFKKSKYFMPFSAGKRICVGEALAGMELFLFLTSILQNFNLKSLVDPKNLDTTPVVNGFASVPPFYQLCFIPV", "experiment": "Recombinant human P450 isoform inhibition, 2C9", "assay_type": "in vitro ADME", "protocol": "(§1) In a study using recombinant human P450 isoforms, the compound was only a weak inhibitor (IC50>10 μM) of all isoforms tested, 3A4, 2D6, 2C9, 2C19, and 1A2."}, "[2]": {"molecular_target": "recombinant human P450 3A4 (Homo sapiens, UniProt P08684)", "sequence (P08684 whole entry, canonical isoform)": "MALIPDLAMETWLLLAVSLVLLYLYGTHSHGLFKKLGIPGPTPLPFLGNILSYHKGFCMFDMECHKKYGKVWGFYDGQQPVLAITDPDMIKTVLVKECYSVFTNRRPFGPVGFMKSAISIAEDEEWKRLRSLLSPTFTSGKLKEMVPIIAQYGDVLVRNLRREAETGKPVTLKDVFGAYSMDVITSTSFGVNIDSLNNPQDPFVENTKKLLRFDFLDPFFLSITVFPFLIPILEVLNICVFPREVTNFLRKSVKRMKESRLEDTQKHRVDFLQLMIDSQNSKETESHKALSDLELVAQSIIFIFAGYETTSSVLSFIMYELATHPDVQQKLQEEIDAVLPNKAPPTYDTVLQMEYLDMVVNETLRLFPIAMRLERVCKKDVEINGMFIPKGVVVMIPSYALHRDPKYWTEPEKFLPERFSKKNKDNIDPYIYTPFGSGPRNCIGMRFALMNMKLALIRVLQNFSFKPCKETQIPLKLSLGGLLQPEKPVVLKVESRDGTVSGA", "experiment": "Recombinant human P450 isoform inhibition, 3A4", "assay_type": "in vitro ADME", "protocol": "as §1"}, "[3]": {"molecular_target": "T1, recombinant human P450 1A2 (Homo sapiens, UniProt P05177)", "T1 sequence (P05177 1-516)": "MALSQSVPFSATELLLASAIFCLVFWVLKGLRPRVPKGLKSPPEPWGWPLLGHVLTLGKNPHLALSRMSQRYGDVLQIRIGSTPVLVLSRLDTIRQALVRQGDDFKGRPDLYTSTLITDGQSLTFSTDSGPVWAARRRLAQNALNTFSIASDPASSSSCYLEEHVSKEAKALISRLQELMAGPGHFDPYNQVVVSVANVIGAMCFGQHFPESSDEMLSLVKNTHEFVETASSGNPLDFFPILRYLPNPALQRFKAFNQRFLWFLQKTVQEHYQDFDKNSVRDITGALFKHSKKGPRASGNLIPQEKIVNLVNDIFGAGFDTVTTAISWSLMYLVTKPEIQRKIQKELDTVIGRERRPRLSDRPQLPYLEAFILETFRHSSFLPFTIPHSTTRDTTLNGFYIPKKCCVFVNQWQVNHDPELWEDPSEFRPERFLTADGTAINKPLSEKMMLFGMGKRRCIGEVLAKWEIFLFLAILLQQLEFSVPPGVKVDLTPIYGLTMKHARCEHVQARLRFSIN", "experiment": "Recombinant human P450 isoform inhibition, 1A2", "assay_type": "in vitro ADME", "protocol": "as §1"}, "[4]": {"experiment": "Metabolic stability in rat liver microsomes", "assay_type": "in vitro ADME", "conditions": "10 min incubation", "protocol": "(§2) The metabolic stability of Compound 3 was investigated using several approaches. The compound was incubated with liver microsomes from mouse, rat, dog and human and the percent of compound remaining after ten min quantified. The compound was metabolically robust in all species tested."}, "delta opioid receptor": {"molecular_target": "T2, delta opioid receptor (Rattus norvegicus, UniProt P33533)", "T2 construct": "from tissue; host or cells: rat forebrain membrane (particulate) preparation", "T2 sequence (P33533 whole entry)": "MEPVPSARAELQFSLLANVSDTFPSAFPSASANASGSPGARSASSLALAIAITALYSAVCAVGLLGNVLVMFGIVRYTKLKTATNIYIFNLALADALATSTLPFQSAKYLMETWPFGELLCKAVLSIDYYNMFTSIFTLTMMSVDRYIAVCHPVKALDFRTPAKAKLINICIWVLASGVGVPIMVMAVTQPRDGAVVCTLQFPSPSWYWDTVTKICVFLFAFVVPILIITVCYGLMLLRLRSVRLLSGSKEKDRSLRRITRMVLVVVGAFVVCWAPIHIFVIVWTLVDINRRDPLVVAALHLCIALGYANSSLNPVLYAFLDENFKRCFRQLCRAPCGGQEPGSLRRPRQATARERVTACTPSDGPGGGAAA", "experiment": "Rat brain delta opioid receptor binding assay ([3H]DPDPE)", "conditions": "rat forebrain membranes, 25° C.", "protocol": "(§3) Rat Brain Mu and Delta Opioid Receptor Binding Assay\nMale, Wistar rats (150-250 g, VAF, Charles River, Kingston, N.Y.) were killed by cervical dislocation and their brains removed and placed immediately in ice cold Tris HCl buffer (50 mM, pH 7.4). The forebrains were separated from the remainder of the brain by a coronal transection, beginning dorsally at the colliculi and passing ventrally through the midbrain-pontine junction. After dissection, the forebrains were homogenized in Tris buffer in a Teflon®-glass homogenizer. The homogenate was diluted to a concentration of 1 g of forebrain tissue per 100 mL Tris buffer and centrifuged at 39,000×G for 10 min. The pellet was resuspended in the same volume of Tris buffer with several brief pulses from a Polytron homogenizer. This particulate preparation was used for the opioid receptor binding assays. […] The tubes and filters were rinsed three times with 4 mL of 10 mM HEPES (pH 7.4) and the radioactivity associated with the filter circles determined using Formula 989 scintillation fluid (New England Nuclear, Boston, Mass.) in a scintillation counter.\n(§4) The data were used to calculate a Ki value, using GraphPad Prism."}, "[5]": {"molecular_target": "recombinant human P450 2C19 (Homo sapiens, UniProt P33261)", "sequence (P33261 whole entry, canonical isoform)": "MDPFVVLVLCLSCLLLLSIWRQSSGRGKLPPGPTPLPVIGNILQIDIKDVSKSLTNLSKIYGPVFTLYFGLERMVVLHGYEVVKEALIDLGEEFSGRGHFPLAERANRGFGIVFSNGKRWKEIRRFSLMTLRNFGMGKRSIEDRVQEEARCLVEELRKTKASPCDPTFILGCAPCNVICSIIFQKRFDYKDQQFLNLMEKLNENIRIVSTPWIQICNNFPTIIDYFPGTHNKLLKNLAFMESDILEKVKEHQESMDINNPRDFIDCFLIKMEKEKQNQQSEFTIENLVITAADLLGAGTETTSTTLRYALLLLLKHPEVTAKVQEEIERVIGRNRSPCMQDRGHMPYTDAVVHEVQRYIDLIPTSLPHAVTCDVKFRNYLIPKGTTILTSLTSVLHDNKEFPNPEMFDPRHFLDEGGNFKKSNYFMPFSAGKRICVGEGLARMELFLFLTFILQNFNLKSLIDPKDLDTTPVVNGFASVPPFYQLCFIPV", "experiment": "Recombinant human P450 isoform inhibition, 2C19", "assay_type": "in vitro ADME", "protocol": "as §1"}, "[6]": {"experiment": "Metabolic stability in dog liver microsomes", "assay_type": "in vitro ADME", "conditions": "10 min incubation", "protocol": "as §2"}, "mu opioid receptor": {"molecular_target": "T3, mu opioid receptor (Rattus norvegicus, UniProt P33535)", "T3 construct": "from tissue; host or cells: rat forebrain membrane (particulate) preparation", "T3 sequence (P33535 whole entry)": "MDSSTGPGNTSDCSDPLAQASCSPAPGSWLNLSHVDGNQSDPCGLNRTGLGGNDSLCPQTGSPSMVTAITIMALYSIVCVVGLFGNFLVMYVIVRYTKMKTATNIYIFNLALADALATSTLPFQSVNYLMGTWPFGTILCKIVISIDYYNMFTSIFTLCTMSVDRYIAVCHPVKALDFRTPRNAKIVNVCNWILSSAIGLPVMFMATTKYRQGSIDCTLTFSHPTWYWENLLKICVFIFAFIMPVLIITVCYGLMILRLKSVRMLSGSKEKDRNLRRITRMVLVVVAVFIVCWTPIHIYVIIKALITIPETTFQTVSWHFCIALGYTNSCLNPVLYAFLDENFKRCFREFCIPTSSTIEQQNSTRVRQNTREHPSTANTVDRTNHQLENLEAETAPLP", "experiment": "Rat brain mu opioid receptor binding assay ([3H]DAMGO)", "conditions": "rat forebrain membranes, 25° C.", "protocol": "as §3\nMale, Wistar rats (150-250 g, VAF, Charles River, Kingston, N.Y.) were killed by cervical dislocation and their brains removed and placed immediately in ice cold Tris HCl buffer (50 mM, pH 7.4). The forebrains were separated from the remainder of the brain by a coronal transection, beginning dorsally at the colliculi and passing ventrally through the midbrain-pontine junction. After dissection, the forebrains were homogenized in Tris buffer in a Teflon®-glass homogenizer. The homogenate was diluted to a concentration of 1 g of forebrain tissue per 100 mL Tris buffer and centrifuged at 39,000×G for 10 min. The pellet was resuspended in the same volume of Tris buffer with several brief pulses from a Polytron homogenizer. This particulate preparation was used for the opioid receptor binding assays. Following incubation with the mu opioid selective peptide ligand [^3H]DAMGO or the delta opioid selective ligand [^3H]DPDPE at 25° C., the tube contents were filtered through Whatman GF/B filter sheets on a Brandel cell harvester. The tubes and filters were rinsed three times with 4 mL of 10 mM HEPES (pH 7.4) and the radioactivity associated with the filter circles determined using Formula 989 scintillation fluid (New England Nuclear, Boston, Mass.) in a scintillation counter.\nas §4"}, "Human mu opioid": {"molecular_target": "T4, Human mu opioid (Homo sapiens, UniProt P35372)", "T4 construct": "host or cells: CHO cell membranes", "T4 sequence (P35372 whole entry)": "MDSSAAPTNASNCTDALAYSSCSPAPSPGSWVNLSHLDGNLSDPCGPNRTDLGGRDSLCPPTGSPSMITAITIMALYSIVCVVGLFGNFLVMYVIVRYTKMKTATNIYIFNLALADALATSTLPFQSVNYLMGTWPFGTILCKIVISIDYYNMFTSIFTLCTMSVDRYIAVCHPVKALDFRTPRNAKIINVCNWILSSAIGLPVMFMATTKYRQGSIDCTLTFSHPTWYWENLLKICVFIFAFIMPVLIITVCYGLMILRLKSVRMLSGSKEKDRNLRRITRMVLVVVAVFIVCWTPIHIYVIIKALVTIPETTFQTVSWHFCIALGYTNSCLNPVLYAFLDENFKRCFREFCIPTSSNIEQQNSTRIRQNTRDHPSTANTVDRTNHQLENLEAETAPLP", "experiment": "[35S]GTPγS binding assay in human mu opioid-CHO cell membranes", "assay_type": "biochemical", "protocol": "[^35S]GTPγS Binding Assay in Human mu opioid-CHO Cell Membranes\nHuman mu-CHO cell membranes were purchased from Receptor Biology, Inc. (Baltimore, Md.). About 10 mg/ml of membrane protein was suspended in 10 mM TRIS-HCl, pH 7.2, 2 mM EDTA, 10% sucrose.\nMembranes were maintained at 4-8° C. 1 ml of membranes was added into 15 ml cold assay buffer, containing 50 mM HEPES, pH 7.6, 5 mM MgCl2, 100 mM NaCl, 1 mM DTT and 1 mM EDTA. The membrane suspension was homogenized with a Polytron 2 times and centrifuged at 3000 rpm for 10 min. The supernatant was then centrifuged at 18,000 rpm for 20 min. The pellet was resuspended in 10 ml assay buffer with a Polytron.\nThe pellet membranes (20 μg/ml) were preincubated with Scintillation Proximity Assay beads (SPA, 10 mg/ml) at 25° C. for 45 min in the assay buffer. The SPA beads (5 mg/ml) coupled with membranes (10 μg/ml) were then incubated with 0.5 nM [^35S]GTPγS in the same HEPES buffer containing 50 μM GDP in total volume of 200 μl. A range of concentrations of receptor agonists were used to stimulate [^35S]GTPγS binding. The basal binding was tested in the absence of agonist and non-specific binding was tested in the presence of 10 μM unlabeled GTPγS. Radioactivity was quantified on a Packard TopCount.\nData were Calculated as Follows: % of basal=(stimulated−non-specific)*100/(basal−non specific) % Inhibition=(% Basal of 1 μM DAMGO−% Basal of compound)*100/(% Basal of 1 μM DAMGO−100)\nEC50 values were calculated using the Prism program."}}}
{"smiles": "CN(C)C[C@H]1CCCC[C@]1(O)c1cccc(C(N)=O)c1", "note": "(single isomer, unassigned) [Cpd 3]", "values": [{"measurement": "IC50", "setting": "[1]", "value": "> 10", "unit": "µM"}, {"measurement": "IC50", "setting": "[2]", "value": "> 10", "unit": "µM"}, {"measurement": "IC50", "setting": "[3]", "value": "> 10", "unit": "µM"}, {"measurement": "% remaining after 10 min", "setting": "[4]", "value": 94.5, "unit": "%"}, {"measurement": "Ki", "setting": "delta opioid receptor", "value": 3.14, "unit": "µM"}, {"measurement": "IC50", "setting": "[5]", "value": "> 10", "unit": "µM"}, {"measurement": "% remaining after 10 min", "setting": "[6]", "value": 92.6, "unit": "%"}, {"measurement": "Ki", "setting": "mu opioid receptor", "value": 0.0155, "unit": "µM"}, {"measurement": "EC50", "setting": "Human mu opioid", "value": 0.167, "unit": "µM"}, {"measurement": "Mu opioid GTPγS relative efficacy", "setting": "Human mu opioid", "value": 75, "unit": "%"}]}
